Measurements reported in US8798939B2, “Methods for designing, selecting and/or optimizing allosteric processing inhibitors for matrix metalloproteinases” (Janssen Pharmaceutica N.V., priority 2011, dated 2014).

Target: T1, proMMP9 activation to active MMP9 in HFL-1 cells (Homo sapiens, UniProt P14780)
T1 construct: endogenous in cells; host or cells: HFL-1 (ATCC CCL-153), TNFα plus 30 nM human neutrophil elastase
Assay: Activation of proMMP9 by human fetal lung fibroblast (HFL-1) cultures (Western blot)
Type: cell-based
Settings: 3.3 μM, 72 hrs, mAb-L51/82
Description: Example 2 was assessed additionally for ability to block the maturation of proMMP9 to active MMP9 in cultures of human fetal lung fibroblasts (HFL-1, American Type Culture Collection #CCL-153). Unlike rat synoviocytes, HFL-1 cells were unable to process proMMP9 to the active form without addition of neutrophil elastase. […] Rather, the function of elastase in this assay may be to inactivate tissue inhibitors of matrix metalloproteinases (TIMPs) that repress endogenous pathways of MMP9 activation (Skold, Liu et al. 1999).
HLF-1 were maintained in monolayer culture in DMEM with 10% FCS and were used between passage numbers 5-15. HLF-1 were embedded in collagen gels as described for rat SCW synoviocytes (vida supra). […] The plates were cultured an additional 72 hrs, at which time MMP9 secreted into the conditioned media was bound to gelatin-sepharose and evaluated by Western blot analysis as described for the rat synoviocyte cultures (vida supra). mAb-51/82 detected three forms of MMP9 in HFL-1 cultures.
A second experiment was performed to determine if the 80 kD form was mature active MMP9 and to determine the potency of Example 2 as an inhibitor of MMP9 maturation in this assay. […] In the absence of Example 2, pAb-1246 readily detected MMP9 with an electrophoretic mobility of approximately 80 kD. […]

T1 sequence (P14780 20-707 limits assumed): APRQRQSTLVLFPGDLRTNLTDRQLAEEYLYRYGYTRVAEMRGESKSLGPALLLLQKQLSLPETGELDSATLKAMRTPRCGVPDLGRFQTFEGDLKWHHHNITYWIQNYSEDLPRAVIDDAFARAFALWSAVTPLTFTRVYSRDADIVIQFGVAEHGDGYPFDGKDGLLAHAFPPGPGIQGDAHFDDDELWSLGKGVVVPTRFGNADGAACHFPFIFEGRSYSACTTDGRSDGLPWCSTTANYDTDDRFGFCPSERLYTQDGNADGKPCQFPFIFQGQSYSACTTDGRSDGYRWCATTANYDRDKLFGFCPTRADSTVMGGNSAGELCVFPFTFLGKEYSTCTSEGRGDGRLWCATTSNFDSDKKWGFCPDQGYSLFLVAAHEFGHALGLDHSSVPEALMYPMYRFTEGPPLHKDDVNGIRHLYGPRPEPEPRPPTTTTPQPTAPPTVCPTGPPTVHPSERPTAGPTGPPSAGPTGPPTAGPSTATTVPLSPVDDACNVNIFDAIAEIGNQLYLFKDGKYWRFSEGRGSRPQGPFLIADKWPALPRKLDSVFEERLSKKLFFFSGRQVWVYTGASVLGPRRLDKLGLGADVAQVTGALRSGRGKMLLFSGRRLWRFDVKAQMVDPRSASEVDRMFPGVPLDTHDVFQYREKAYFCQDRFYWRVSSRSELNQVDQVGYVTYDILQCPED

Signal Total: 91346 INT * mm^2
Compound: Cc1nc(C)c(-c2csc(Nc3cc(S(N)(=O)=O)ccc3OC(C)C)n2)s1 [Example 2, 3-(2′,4′-Dimethyl-[4,5′]bithiazolyl-2-ylamino)-4-isopropoxy-benzenesulfonamide.HBr]
